Assay results published in ChEMBL document CHEMBL4765296, “Purine/purine isoster based scaffolds as new derivatives of benzamide class of HDAC inhibitors” (Eur J Med Chem, 2020).
Calls of active or inactive are those of the source. The rule behind the calls is not given here.

Key:
HepG2 = experiment: cells; conditions: Homo sapiens, HepG2, 72 h
Description: Antiproliferative activity against human HepG2 cells assessed as cell growth inhibition measured after 72 hrs by MTT assay

MCF7 = experiment: Cytotoxicity in human MCF7 cells assessed as reduction in cell viability incubated for 72 hrs by MTT assay; format: functional, cell-based
MDA-MB-468 = experiment: Cytotoxicity in human MDA-MB-468 cells assessed as reduction in cell viability incubated for 72 hrs by MTT assay; format: functional, cell-based
[1] = Cytotoxicity against human HDACi-sensitive YCC3 cells assessed as reduction in cell growth incubated for 72 hrs by MTS assay; format: functional, cell-based; conditions: YCC3/7, 72 h
MDA-MB-231 [2] = experiment: Antiproliferative activity against human MDA-MB-231 cells assessed as cell growth inhibition measured after 72 hrs by MTT assay; format: functional, cell-based; conditions: MDA-MB-231, 72 h
cells = conditions: Homo sapiens, YCC-11, 72 h
Description: Cytotoxicity against human HDACi-sensitive YCC-11 cells assessed as reduction in cell growth incubated for 72 hrs by MTS assay

Histone deacetylase 9 = Histone deacetylase 9 (Homo sapiens, UniProt Q9UKV0); experiment: Inhibition of human recombinant HDAC9 expressed in baculovirus using fluorogenic peptide p53 residues 379-382 (RHKK(Ac)AMC) as substrate by Fluorescence analysis
Histone deacetylase 9, sequence (Q9UKV0 whole entry, the tested form may be a part): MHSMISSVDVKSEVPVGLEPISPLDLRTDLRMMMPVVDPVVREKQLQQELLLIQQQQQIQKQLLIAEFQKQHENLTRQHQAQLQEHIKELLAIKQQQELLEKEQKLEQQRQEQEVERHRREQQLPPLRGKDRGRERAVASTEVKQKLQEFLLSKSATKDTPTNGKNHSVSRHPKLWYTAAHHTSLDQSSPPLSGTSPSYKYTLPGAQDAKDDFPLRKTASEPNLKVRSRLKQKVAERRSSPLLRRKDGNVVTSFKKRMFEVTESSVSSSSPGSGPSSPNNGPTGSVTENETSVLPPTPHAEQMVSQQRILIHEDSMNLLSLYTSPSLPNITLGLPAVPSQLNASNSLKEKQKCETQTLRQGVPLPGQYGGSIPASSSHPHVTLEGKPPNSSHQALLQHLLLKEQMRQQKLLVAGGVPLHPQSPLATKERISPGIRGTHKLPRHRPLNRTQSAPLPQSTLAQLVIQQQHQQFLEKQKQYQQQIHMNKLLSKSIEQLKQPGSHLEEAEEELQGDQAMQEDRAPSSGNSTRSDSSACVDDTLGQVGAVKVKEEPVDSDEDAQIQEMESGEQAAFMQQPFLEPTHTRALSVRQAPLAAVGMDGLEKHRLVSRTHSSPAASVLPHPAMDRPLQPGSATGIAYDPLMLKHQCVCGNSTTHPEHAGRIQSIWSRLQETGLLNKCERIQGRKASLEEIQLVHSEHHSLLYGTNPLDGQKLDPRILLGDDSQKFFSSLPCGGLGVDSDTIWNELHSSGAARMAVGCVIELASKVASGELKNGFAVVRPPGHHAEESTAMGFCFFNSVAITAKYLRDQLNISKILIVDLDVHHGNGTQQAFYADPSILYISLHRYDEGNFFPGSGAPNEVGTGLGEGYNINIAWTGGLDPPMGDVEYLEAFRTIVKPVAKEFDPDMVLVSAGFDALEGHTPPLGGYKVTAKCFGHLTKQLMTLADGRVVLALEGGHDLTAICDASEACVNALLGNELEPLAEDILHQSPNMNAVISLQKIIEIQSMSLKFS

Histone deacetylase 7 = target: T1, Histone deacetylase 7 (Homo sapiens, UniProt Q8WUI4); experiment: Inhibition of human recombinant HDAC7 expressed in baculovirus using fluorogenic peptide p53 residues 379-382 (RHKK(Ac)AMC) as substrate by Fluorescence analysis
T1 sequence (Q8WUI4 whole entry): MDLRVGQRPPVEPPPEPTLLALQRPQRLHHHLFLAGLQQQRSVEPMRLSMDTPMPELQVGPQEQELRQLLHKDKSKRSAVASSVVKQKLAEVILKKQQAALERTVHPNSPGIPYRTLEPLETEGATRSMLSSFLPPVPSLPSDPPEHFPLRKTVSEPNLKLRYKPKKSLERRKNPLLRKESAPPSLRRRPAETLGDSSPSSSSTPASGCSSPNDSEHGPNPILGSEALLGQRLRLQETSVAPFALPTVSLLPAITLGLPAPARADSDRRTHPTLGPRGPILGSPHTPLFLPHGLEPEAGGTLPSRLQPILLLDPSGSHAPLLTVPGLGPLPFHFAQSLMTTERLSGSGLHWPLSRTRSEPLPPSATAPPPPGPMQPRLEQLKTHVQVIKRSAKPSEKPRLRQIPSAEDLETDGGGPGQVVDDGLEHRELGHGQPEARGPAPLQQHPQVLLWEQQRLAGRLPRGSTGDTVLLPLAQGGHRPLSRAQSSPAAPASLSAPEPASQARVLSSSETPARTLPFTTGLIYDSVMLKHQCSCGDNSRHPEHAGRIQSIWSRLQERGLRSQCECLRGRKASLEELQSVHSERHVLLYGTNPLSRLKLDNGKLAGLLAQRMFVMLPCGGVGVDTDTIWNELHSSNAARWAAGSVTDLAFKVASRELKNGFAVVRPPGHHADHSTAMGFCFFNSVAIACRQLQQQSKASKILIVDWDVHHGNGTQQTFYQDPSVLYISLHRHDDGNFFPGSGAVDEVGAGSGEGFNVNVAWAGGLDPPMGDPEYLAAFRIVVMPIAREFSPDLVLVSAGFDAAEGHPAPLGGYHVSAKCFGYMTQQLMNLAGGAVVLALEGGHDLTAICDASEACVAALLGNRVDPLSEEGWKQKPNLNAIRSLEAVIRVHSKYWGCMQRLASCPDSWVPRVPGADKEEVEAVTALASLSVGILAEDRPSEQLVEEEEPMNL

Histone deacetylase 5 = Histone deacetylase 5 (Homo sapiens, UniProt Q9UQL6); experiment: Inhibition of human recombinant HDAC5 expressed in baculovirus using fluorogenic peptide p53 residues 379-382 (RHKK(Ac)AMC) as substrate by Fluorescence analysis
Histone deacetylase 5, sequence (Q9UQL6 whole entry, the tested form may be a part): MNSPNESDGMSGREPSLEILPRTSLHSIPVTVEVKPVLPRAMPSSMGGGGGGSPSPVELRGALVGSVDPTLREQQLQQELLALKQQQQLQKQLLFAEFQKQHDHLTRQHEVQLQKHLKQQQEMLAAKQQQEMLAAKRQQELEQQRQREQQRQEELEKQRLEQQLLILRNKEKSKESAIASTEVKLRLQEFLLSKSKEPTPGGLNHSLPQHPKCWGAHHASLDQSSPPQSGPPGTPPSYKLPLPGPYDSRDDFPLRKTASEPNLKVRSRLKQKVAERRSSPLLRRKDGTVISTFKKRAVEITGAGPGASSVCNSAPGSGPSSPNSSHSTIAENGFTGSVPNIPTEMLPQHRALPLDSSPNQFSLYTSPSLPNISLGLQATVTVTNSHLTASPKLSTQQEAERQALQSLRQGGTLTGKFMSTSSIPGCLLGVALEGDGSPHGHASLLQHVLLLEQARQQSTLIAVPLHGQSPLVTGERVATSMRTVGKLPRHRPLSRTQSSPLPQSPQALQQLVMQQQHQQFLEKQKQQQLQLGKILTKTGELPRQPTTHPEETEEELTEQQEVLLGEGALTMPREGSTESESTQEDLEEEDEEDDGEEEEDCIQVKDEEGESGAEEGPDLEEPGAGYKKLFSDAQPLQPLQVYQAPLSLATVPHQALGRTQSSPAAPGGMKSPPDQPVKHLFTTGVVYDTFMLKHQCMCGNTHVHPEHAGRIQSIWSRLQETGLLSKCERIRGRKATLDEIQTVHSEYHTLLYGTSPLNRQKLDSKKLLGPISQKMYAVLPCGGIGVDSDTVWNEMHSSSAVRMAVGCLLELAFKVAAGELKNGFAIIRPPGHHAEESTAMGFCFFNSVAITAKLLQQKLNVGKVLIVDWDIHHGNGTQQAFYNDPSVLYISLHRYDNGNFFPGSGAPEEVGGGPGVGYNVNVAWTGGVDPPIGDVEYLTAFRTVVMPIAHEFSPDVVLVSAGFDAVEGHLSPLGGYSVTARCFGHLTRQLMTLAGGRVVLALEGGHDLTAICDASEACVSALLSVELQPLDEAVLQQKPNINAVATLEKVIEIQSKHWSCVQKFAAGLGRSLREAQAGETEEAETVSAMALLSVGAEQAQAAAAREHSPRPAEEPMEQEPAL

Histone deacetylase 4 = Histone deacetylase 4 (Homo sapiens, UniProt P56524); experiment: Inhibition of human recombinant HDAC4 expressed in baculovirus using fluorogenic peptide p53 residues 379-382 (RHKK(Ac)AMC) as substrate by Fluorescence analysis
Histone deacetylase 4, sequence (P56524 whole entry, the tested form may be a part): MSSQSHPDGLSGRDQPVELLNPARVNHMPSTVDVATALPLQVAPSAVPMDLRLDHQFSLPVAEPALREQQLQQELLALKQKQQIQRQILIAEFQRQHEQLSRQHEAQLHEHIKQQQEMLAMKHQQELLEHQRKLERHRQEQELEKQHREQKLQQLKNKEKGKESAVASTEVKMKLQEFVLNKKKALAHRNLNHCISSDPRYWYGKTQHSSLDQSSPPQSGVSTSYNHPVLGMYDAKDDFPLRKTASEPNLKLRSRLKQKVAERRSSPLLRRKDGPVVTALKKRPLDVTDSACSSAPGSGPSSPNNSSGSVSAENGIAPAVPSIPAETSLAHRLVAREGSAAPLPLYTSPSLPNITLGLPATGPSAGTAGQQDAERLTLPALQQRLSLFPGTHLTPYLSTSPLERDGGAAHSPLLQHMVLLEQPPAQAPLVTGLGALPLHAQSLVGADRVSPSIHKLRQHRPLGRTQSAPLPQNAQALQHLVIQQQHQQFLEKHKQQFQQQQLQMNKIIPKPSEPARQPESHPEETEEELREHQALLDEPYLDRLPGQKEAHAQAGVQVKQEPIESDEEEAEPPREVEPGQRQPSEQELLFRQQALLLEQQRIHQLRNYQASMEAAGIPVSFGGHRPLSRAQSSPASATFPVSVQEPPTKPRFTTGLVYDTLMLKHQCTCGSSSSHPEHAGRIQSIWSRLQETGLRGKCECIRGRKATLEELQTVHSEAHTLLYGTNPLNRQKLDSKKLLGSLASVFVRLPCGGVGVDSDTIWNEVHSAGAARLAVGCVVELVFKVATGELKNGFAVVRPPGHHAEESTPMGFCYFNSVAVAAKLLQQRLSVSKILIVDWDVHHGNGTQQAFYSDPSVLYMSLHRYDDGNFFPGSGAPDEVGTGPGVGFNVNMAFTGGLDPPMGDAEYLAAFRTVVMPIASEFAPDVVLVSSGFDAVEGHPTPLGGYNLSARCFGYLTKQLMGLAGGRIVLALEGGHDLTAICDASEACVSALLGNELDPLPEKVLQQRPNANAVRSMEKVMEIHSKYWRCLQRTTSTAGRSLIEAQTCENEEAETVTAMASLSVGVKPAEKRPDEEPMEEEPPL

MDA-MB-231 [3] = experiment: Induction of cell cycle arrest in human MDA-MB-231 cells assessed as accumulation of cells at subG1 phase at 16 uM for 48 hrs by PI staining based flow cytometry analysis; format: functional
MDA-MB-231 [4] = experiment: Induction of cell cycle arrest in human MDA-MB-231 cells assessed as reduction in population at S phase at 4 uM for 24 hrs by PI staining based flow cytometry analysis; format: functional
MDA-MB-231 [5] = experiment: Induction of cell cycle arrest in human MDA-MB-231 cells assessed as reduction in population between G1 to G2/M phases at 4 uM for 24 hrs by PI staining based flow cytometry analysis; format: functional
MDA-MB-231 [6] = experiment: Induction of apoptosis in human MDA-MB-231 cells assessed as increase in cleaved PARP-1 level incubated for 24 hrs by Western blot analysis; format: functional, cell-based
MDA-MB-231 [7] = experiment: Induction of cell cycle arrest in human MDA-MB-231 cells assessed as accumulation of cells at G1 phase at 4 uM for 24 hrs in presence of nocodazole by PI staining based flow cytometry analysis; format: functional
MDA-MB-231 [8] = experiment: Induction of apoptosis in human MDA-MB-231 cells assessed as increase in cleaved caspase-3 level incubated for 24 hrs by Western blot analysis; format: functional, cell-based
MDA-MB-231 [9] = experiment: Induction of apoptosis in human MDA-MB-231 cells assessed as increase in cleaved caspase-8 level incubated for 24 hrs by Western blot analysis; format: functional, cell-based

## Nc1ccc(F)cc1NC(=O)c1ccc(CNC(=O)/C=C/c2cccnc2)cc1
HepG2
  IC50: > 8 µM
MCF7
  Activity: Active
MDA-MB-468
  Activity: Active
[1]
  IC50: 20.4 µM
MDA-MB-231 [2]
  IC50: 3.6 µM
cells
  IC50: 17.1 µM

## Nc1nc(Nc2ccc(F)c(Cl)c2)c2ncn(Cc3ccc(C(=O)Nc4ccccc4N)cc3)c2n1
Histone deacetylase 9
  IC50: > 10 µM
Histone deacetylase 7
  IC50: > 10 µM
Histone deacetylase 5
  IC50: > 10 µM
Histone deacetylase 4
  IC50: > 10 µM

## Nc1ccccc1NC(=O)c1ccc(CNC(=O)OCc2cccnc2)cc1 [ENTINOSTAT]
MDA-MB-231 [3]
  Activity: Active
HepG2
  IC50: 4.54 µM
MCF7
  Activity: Active
MDA-MB-468
  Activity: Active
MDA-MB-231 [4]
  Activity: Active
[1]
  IC50: 13 µM
MDA-MB-231 [5]
  Activity: Active
MDA-MB-231 [6]
  Activity: Active
MDA-MB-231 [7]
  Activity: Active
MDA-MB-231 [8]
  Activity: Active
MDA-MB-231 [9]
  Activity: Active
